Test results from ChEMBL document CHEMBL1201862, “PubChem BioAssay data set” (2004).
Each block holds one compound with its values, some of them ahead of it. The source made the active and inactive calls.

Tests used:
[1] = NIH3T3 cell viability loss – ATP luminescence, mouse fibroblasts, counter-screen, dose response (AID 2010); assay type: functional, cell-based;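 note: cells exposed to compound for about 90 hours before reading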
Protein Wnt-3a = Protein Wnt-3a (Mus musculus, UniProt P27467); test: antagonism of Wnt3a pathway luciferase reporter – Wnt-LIGHT cells, luminescence, selectivity assay for Gli-SUFU antagonist project, dose response (AID 651570); assay type: functional; conditions: read-out: IC50_Mean;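 note: Wnt-LIGHT reporter cells stimulated with conditioned medium from Wnt3a-producing cells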
Sequence of Protein Wnt-3a (P27467 whole entry): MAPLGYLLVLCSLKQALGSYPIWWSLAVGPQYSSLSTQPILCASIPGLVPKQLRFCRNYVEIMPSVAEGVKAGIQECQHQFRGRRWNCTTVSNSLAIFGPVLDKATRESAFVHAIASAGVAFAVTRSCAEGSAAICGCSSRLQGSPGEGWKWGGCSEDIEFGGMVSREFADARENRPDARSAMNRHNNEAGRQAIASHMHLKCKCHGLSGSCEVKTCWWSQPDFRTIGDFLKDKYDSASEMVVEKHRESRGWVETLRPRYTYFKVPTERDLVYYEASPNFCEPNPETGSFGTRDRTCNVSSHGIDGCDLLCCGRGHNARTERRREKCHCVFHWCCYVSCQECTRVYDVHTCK

[2] = Trypanosoma cruzi growth suppression in host cells – NIH3T3 host cells, beta-gal luminescence, confirmation (AID 2044); assay type: functional, cell-based;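 note: intracellular parasites grown in NIH/3T3 mouse fibroblasts as host cells; luminescent beta-galactosidase reporter signal from transgenic T. cruzi replicating inside host cells; inhibitors lower the luminescence signal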
Aminopeptidase N = biological target: T1, Aminopeptidase N (Plasmodium falciparum FcB1/Columbia, UniProt O96935); test: malaria alanyl aminopeptidase activity blockers – biochemical, fluorogenic H-Leu-NHMec substrate, 1536-well (AID 1445); set-up: species or system Plasmodium falciparum 3D7, 3D7
T1 sequence (O96935 whole entry): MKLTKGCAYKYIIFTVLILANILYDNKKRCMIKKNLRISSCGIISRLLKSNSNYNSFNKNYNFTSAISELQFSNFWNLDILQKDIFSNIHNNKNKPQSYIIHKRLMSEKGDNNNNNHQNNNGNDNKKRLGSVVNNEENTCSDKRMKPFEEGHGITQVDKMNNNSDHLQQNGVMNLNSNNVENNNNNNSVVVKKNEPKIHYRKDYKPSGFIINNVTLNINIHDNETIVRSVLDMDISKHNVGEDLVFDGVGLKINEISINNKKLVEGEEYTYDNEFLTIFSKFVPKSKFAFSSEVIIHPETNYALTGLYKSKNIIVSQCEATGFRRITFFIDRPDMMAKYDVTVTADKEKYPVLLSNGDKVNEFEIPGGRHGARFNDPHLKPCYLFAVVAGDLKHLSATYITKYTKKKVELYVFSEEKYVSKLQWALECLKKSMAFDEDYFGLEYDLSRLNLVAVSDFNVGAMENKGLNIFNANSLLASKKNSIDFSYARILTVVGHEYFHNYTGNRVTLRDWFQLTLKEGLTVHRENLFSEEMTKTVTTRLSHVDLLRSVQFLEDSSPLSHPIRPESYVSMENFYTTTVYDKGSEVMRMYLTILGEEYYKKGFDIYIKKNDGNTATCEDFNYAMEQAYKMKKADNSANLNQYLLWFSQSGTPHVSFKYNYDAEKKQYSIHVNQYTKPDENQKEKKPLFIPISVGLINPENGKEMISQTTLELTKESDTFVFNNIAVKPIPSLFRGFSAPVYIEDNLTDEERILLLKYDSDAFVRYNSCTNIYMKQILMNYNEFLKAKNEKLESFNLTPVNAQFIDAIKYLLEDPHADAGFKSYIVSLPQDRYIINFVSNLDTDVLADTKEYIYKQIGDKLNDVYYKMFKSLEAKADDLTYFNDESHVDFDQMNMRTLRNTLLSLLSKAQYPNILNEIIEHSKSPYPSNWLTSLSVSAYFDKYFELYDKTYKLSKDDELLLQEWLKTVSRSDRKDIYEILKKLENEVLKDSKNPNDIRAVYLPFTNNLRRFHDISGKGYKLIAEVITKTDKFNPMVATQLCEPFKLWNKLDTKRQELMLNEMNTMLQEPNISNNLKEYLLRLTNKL

[3] = biological target: T2, High affinity choline transporter 1 (Homo sapiens, UniProt Q9GZV3); test: human choline transporter blockers, potency – cell-based, 10-point CRC, membrane potential dye, dose response (AID 588401); assay type: functional;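 note: membrane potential dye fluorescence of choline-evoked depolarization via CHT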
T2 sequence (Q9GZV3 whole entry): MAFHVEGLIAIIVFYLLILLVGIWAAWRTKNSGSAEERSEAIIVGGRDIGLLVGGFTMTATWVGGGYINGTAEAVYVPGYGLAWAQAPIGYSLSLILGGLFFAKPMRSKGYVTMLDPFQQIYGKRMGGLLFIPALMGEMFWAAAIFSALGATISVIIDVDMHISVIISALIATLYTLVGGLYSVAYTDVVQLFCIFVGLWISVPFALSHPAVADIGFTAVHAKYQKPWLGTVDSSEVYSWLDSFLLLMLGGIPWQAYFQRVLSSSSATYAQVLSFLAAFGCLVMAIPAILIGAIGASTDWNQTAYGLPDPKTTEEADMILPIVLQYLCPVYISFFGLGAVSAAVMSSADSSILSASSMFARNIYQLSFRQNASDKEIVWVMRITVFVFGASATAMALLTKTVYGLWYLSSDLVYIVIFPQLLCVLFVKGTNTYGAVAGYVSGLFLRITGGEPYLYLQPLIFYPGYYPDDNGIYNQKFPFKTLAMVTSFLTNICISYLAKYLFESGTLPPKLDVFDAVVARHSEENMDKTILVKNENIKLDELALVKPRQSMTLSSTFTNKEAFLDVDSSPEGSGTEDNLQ

[4] = biological target: T2, High affinity choline transporter 1; test: human choline transporter blockers, potency – cell-based, 5-point CRC, membrane potential dye, dose response (AID 504840); assay type: functional
[5] = biological target: Potassium voltage-gated channel subfamily KQT member 2 (Rattus norvegicus, UniProt O88943); test: blockers of KCNQ2 channel current – cell-based, automated electrophysiology, set II, rat KCNQ2, dose response (AID 588637); assay type: functional
Sequence of Potassium voltage-gated channel subfamily KQT member 2 (O88943 whole entry): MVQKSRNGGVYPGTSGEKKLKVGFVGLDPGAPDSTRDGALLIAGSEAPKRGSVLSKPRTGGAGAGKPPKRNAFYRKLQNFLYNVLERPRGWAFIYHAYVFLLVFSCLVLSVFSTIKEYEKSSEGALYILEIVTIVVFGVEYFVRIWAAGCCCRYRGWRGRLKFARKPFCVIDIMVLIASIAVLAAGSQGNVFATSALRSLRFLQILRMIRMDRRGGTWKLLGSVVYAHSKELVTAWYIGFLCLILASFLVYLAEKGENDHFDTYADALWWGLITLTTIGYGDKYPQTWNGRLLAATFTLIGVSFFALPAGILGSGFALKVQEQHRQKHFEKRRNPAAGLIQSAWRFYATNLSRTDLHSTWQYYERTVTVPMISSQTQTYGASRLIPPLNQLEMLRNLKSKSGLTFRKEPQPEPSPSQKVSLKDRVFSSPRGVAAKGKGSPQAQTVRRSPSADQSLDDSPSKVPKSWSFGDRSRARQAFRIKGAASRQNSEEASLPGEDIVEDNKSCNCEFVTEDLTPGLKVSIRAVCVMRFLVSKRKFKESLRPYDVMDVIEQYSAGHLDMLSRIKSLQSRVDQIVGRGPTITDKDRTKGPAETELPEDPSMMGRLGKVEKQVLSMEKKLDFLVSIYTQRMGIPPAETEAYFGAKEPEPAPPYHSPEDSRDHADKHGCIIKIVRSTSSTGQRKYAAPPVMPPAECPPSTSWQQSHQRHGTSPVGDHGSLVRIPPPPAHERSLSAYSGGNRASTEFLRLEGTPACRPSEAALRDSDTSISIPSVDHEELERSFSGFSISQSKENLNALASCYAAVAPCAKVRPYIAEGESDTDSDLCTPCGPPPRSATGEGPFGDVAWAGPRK

Interleukin-8 = biological target: T3, Interleukin-8 (Homo sapiens, UniProt P10145); test: Dose Response confirmation of uHTS small molecule hits for cystic fibrosis induced NFkb Inhibitors in a PAF-induced IL8 counterscreen.; assay type: functional; conditions: read-out: IC50_Mean
T3 sequence (P10145 whole entry): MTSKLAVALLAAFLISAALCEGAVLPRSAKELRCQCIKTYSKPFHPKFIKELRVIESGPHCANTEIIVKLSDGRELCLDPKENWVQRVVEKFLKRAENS

Hexokinase-1 = biological target: T4, Hexokinase-1 (Homo sapiens, UniProt P19367); test: SAR analysis of small molecule inhibitors of hexokinase domain containing I (HKDC1) in the hexokinase 1 selectivity assay. [Related pubchem assays (depositor defined):AID493160, AID493190]; assay type: functional
T4 sequence (P19367 whole entry): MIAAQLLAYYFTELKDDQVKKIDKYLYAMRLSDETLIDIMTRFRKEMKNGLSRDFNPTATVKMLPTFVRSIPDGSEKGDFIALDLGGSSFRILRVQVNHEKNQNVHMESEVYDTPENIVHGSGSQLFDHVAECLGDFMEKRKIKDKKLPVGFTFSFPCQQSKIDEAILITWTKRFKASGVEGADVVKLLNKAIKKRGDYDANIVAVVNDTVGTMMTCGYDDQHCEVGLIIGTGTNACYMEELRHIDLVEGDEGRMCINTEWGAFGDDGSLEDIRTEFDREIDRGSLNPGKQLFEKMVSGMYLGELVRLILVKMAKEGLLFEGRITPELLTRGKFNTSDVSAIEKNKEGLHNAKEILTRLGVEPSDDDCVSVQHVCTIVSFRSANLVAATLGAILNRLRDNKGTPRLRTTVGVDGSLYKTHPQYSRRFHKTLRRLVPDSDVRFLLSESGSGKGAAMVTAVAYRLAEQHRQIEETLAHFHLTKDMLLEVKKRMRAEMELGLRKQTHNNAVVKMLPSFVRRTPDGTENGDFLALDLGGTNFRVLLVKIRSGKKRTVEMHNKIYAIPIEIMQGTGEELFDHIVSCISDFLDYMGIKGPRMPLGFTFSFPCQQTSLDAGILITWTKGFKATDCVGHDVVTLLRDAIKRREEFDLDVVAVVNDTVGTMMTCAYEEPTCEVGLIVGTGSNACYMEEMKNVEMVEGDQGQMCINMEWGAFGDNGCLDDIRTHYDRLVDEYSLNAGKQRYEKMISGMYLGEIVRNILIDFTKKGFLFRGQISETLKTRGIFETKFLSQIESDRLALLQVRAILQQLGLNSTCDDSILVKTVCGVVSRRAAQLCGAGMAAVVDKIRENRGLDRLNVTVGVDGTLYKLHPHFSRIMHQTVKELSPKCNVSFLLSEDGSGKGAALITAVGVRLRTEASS

Hexokinase HKDC1 = biological target: T5, Hexokinase HKDC1 (Homo sapiens, UniProt Q2TB90); test: SAR analysis of small molecule inhibitors of hexokinase domain containing I (HKDC1). [Related pubchem assays (depositor defined):AID493160, AID493190]; assay type: functional
T5 sequence (Q2TB90 whole entry): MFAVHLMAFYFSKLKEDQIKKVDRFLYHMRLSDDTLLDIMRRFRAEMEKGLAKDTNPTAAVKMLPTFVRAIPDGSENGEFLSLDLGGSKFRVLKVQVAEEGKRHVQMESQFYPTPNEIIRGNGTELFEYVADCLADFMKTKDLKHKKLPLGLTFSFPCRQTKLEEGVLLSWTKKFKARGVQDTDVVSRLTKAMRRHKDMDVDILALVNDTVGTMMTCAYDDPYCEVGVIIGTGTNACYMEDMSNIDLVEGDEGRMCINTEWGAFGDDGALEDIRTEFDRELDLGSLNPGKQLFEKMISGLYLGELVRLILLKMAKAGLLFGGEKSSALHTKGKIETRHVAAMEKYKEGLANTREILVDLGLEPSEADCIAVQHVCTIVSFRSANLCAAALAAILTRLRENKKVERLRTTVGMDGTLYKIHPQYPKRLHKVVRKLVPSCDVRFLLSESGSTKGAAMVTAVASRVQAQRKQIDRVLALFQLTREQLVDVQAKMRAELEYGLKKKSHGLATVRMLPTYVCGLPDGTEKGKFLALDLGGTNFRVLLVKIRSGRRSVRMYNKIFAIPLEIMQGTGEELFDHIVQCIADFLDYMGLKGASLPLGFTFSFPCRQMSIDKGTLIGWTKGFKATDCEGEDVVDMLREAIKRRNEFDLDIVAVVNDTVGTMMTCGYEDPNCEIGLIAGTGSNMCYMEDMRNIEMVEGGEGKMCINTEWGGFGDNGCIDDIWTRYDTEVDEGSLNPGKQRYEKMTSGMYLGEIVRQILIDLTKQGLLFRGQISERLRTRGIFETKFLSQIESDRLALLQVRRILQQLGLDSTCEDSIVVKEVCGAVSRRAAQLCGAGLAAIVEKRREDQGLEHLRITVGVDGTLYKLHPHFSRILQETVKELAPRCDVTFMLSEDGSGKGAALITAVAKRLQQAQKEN

[6] = biological target: T6, Apoptotic protease-activating factor 1 (Homo sapiens, UniProt O14727); test: SAR analysis of small molecule Activators of Apaf-1 in a Fluorescent assay.; assay type: functional; conditions: read-out: EC50_Mean;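 note: caspase-3 cleavage of fluorogenic Rh110 DEVD substrate downstream of apoptosome activation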
T6 sequence (O14727 whole entry): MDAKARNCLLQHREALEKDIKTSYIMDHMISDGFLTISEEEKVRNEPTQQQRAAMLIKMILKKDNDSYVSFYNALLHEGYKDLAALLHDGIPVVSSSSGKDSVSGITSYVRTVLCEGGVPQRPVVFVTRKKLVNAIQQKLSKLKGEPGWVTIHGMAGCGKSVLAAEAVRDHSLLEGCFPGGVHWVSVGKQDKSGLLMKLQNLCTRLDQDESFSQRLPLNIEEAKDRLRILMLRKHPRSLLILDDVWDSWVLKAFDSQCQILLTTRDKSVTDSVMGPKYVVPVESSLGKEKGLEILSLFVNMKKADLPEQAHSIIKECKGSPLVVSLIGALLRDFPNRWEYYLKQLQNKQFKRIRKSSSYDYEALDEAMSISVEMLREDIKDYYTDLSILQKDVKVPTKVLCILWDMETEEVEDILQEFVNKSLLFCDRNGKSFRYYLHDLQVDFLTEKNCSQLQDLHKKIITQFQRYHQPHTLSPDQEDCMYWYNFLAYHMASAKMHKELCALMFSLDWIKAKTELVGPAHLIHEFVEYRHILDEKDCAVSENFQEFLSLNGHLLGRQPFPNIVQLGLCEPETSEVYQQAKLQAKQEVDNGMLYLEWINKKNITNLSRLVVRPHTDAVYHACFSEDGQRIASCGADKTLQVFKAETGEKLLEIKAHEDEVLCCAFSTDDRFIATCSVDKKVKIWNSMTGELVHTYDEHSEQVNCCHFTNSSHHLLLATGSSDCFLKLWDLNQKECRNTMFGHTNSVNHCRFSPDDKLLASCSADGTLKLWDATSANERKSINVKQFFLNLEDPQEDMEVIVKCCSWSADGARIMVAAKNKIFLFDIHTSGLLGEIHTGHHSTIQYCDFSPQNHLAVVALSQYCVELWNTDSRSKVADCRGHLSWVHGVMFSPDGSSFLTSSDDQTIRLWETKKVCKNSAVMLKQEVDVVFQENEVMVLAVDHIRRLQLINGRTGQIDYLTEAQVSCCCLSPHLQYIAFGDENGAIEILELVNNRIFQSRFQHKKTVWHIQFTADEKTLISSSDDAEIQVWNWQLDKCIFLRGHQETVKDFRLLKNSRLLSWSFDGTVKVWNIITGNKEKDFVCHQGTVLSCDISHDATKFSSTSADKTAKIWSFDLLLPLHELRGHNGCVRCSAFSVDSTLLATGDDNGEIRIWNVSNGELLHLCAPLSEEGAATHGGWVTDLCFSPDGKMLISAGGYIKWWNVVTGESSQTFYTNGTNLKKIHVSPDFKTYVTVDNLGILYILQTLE

[7] = inhibition of ARNT PAS-B/TACC3 complex formation – biochemical, AlphaScreen, cherry-picked samples, confirmation (AID 651703); assay type: functional, Homo sapiens;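 note: His-tagged ARNT PAS-B domain paired with GST-TACC3 E629A dimer coactivator fragment; potency of inhibitors that break up the complex and lower AlphaScreen signal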

Structure (SMILES): c1ccc(-c2c[n+](-c3ccccc3)c3n2CCS3)cc1
- EC50 [1]: > 60 µM (inconclusive)
- IC50 (Protein Wnt-3a): 3.05 µM (active)
- EC50 [2]: 2.27 µM (active)

- IC50 (Aminopeptidase N): 34.4 µM (active)
- IC50 [3]: 4.47 µM (active)
- IC50 [4]: 8.3 µM (active)
Structure (SMILES): Cc1cccc(C)c1-n1cccc1/C=C1/C(=N)N2C(=NC1=O)SN=C2S(C)(=O)=O

- IC50 [5]: 5.72 µM (active)
Structure (SMILES): COc1ccccc1N1CCN(C(=O)C(Cc2ccccc2)NC(=O)C2CCCCC2)CC1 (centres undefined)

- IC50 (Interleukin-8): 9.82 µM (active)
Structure (SMILES): CC(C)C[C@@H](CN1CCCC1CN1C(=S)NC[C@@H]1Cc1ccc(O)cc1)N1C[C@H](Cc2ccc(O)cc2)N(CCc2ccccc2)C1=S (some centres undefined)

- IC50 (Hexokinase-1): > 80 µM (inactive)
- IC50 (Hexokinase HKDC1): > 80 µM (inactive)
Structure (SMILES): COc1cccc(/C=C/c2nc3ccccc3c(=O)n2Cc2ccccc2)c1

- IC50 (Hexokinase-1): 69 µM (inactive)
- IC50 (Hexokinase HKDC1): 65.7 µM (inactive)
Structure (SMILES): COc1cc2c(cc1OC)-c1cc(N3CCc4ccccc4C3)nc(=O)n1CC2

- EC50 [6]: > 100 µM (inactive)
Structure (SMILES): CCOc1ccccc1NC(=O)CCS(=O)(=O)c1cc2c(cc1Cl)NC(=O)CO2

Structure (SMILES): COc1cccc(/C=N/NC(=O)CNC(=O)c2cccnc2)c1O
- AC50 [7]: 81.1 µM (active)
